According to US20230265151A1, “GIP/GLP1 CO-AGONIST COMPOUNDS” (priority 2020, published 2023):
Like-named read-outs stand apart in the source and are kept apart here. *1 amine or outer side, *2 acyl side, *3 side chain or, on linkers, in order; H or OH if unused. Where a SMILES comes first, the peptide text is derived from it. Side-chain parts run from the residue outwards. [ ]: non-standard residue; d: D form. The star is where a group is joined. Decanoyl(10-(4-HOOC-PhO)) = O=C(O)c1ccc(OCCCCCCCCCC(=O)*)cc1; αMePhe(2-F) = C[C@](N)(Cc1ccccc1F)C(=O)O; γGlu = O=C(O)[C@H](CCC(=O)[*:2])N[*:1]; C14 diacid = O=C(O)CCCCCCCCCCCCC(=O)*; αMeY = C[C@](N)(Cc1ccc(O)cc1)C(=O)O; αMeL = CC(C)C[C@](C)(N)C(=O)O; Orn = NCCC[C@H](N)C(=O)O; AEEA = NCCOCCOCC(=O)O; Aib = CC(C)(N)C(=O)O

Tests used:
Type in all cases: cell-based
hGCGR = molecular target: T1, hGCGR (Homo sapiens, UniProt P47871); experiment: Functional cAMP formation (HTRF) in HEK-293 clonal cells expressing hGCGR, 0.1% bovine casein, without or with 1.0% human serum albumin
T1 construct: expressed in transfected cells
How it was run: (§1)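 Cells were stimulated with peptide for 30 min at 37° C, then lysed in buffer carrying cAMP-d2 and anti-cAMP Eu3+-cryptate for a competitive HTRF read after at least 60 min at room temperature. The 665/620 nm ratio was converted to nM cAMP against a standard curve.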

hGIPR = molecular target: T2, hGIPR (Homo sapiens, UniProt P48546); experiment: Functional cAMP formation (HTRF) in HEK-293 clonal cells expressing hGIPR, 0.1% bovine casein, without or with 1.0% human serum albumin; conditions: for EC50: geometric mean
T2 construct: expressed in transfected cells
T2 sequence (P48546 22-466): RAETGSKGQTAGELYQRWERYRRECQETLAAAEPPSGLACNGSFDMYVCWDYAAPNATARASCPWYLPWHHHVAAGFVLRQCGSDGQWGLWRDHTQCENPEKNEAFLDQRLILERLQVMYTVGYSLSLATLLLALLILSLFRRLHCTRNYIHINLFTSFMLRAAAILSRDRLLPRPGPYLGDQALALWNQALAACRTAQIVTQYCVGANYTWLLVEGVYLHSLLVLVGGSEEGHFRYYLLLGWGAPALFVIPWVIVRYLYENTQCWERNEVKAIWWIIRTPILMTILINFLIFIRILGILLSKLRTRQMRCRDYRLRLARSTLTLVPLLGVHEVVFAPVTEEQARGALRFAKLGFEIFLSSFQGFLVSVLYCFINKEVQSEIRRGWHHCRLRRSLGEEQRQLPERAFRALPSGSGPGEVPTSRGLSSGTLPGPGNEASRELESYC
How it was run: as §1

hGLP-1R = hGLP-1R (Homo sapiens, UniProt P43220); experiment: Functional cAMP formation (HTRF) in HEK-293 clonal cells expressing hGLP-1R, 0.1% bovine casein, without or with 1.0% human serum albumin; set-up: expressed in transfected cells; conditions: for EC50: cAMP, 0.1% bovine casein (no human serum albumin), geometric mean
How it was run: as §1

[1] = hGCGR EC50, nM (SEM, n), cAMP, 37° C., 0.1% bovine casein (no human serum albumin), geometric mean
[2] = hGCGR EC50, nM (SEM, n), cAMP, 37° C., 0.1% bovine casein and 1.0% human serum albumin, geometric mean (SEM, n)
[3] = HEK293, read-out: hGIPR Emax, % ± SEM, cAMP, 37° C., 0.1% bovine casein and 1.0% human serum albumin, percent of maximal response to GIP(1-42)NH2
[4] = hGIPR EC50, nM (SEM, n), cAMP, 37° C., 0.1% bovine casein (no human serum albumin)
[5] = hGLP-1R EC50, nM (SEM, n), 37° C.
[6] = 0.1% bovine casein and 1.0% human serum albumin, 37° C., geometric mean, read-out: hGCGR EC50, nM (SEM, n)
[7] = cAMP, incubated at 37° C., 0.1% bovine casein (no human serum albumin), geometric mean, read-out: hGCGR EC50, nM (SEM, n)
[8] = HEK293, 0.1% bovine casein and 1.0% human serum albumin, 37° C., percent of maximal response to GIP(1-42)NH2, read-out: hGIPR Emax, % ± SEM
[9] = cAMP, incubated at 37° C., 0.1% bovine casein (no human serum albumin), read-out: hGIPR EC50, nM (SEM, n)
[10] = HEK293, 0.1% bovine casein and 1.0% human serum albumin, 37° C., percent of maximal response to GLP-1(7-36)NH2, read-out: hGLP-1R Emax, % ± SEM
[11] = incubated at 37° C., read-out: hGLP-1R EC50, nM (SEM, n)

T1 sequence (P47871 26-477): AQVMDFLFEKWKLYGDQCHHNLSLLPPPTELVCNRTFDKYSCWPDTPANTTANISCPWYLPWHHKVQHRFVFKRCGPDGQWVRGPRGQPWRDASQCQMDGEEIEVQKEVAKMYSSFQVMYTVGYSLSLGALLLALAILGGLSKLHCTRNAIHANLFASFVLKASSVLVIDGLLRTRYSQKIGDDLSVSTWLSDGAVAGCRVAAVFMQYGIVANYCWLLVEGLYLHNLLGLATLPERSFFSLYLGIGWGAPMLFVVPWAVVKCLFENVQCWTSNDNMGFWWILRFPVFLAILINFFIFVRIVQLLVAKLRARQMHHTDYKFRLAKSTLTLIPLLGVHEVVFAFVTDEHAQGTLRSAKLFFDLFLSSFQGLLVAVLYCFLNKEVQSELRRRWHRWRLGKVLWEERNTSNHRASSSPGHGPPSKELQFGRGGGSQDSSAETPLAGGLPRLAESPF
Sequence of hGLP-1R (P43220 24-463): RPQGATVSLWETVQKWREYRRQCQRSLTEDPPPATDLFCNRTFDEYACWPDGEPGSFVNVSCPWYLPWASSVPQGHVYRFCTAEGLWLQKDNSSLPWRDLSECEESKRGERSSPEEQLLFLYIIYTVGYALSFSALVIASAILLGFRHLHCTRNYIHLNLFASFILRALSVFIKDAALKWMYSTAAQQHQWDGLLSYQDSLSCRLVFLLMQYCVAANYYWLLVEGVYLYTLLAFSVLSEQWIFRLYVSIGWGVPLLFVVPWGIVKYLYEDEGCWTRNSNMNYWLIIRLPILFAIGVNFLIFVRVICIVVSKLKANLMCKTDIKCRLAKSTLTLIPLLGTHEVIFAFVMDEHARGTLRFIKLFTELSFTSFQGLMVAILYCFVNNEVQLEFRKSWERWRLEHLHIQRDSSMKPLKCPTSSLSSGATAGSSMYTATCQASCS

CC[C@H](C)[C@H](NC(=O)[C@H](CC(C)C)NC(=O)[C@](C)(Cc1ccc(O)cc1)NC(=O)[C@@H](CCC(=O)O)NC(=O)[C@@H](NC(=O)[C@H](Cc1ccccc1)NC(=O)[C@H](CCCCNC(=O)COCCOCCNC(=O)COCCOCCNC(=O)CC[C@H](NC(=O)CCCCCCCCCOc1ccc(C(=O)O)cc1)C(=O)O)NC(=O)C(C)(C)NC(=O)[C@H](CCC(N)=O)NC(=O)[C@H](C)NC(=O)[C@H](CCCCNC(=O)COCCOCCNC(=O)COCCOCCNC(=O)CC[C@H](NC(=O)CCCCCCCCCOc1ccc(C(=O)O)cc1)C(=O)O)NC(=O)[C@H](CCCN)NC(=O)[C@H](CC(=O)O)NC(=O)[C@H](CC(C)C)NC(=O)[C@](C)(CC(C)C)NC(=O)[C@@H](NC(=O)C(C)(C)NC(=O)[C@H](Cc1ccc(O)cc1)NC(=O)[C@H](CC(=O)O)NC(=O)[C@H](CO)NC(=O)[C@@H](NC(=O)[C@](C)(Cc1ccccc1F)NC(=O)[C@@H](NC(=O)CNC(=O)[C@H](CCC(=O)O)NC(=O)C(C)(C)NC(=O)[C@@H](N)Cc1ccc(O)cc1)[C@@H](C)O)[C@@H](C)O)[C@@H](C)CC)[C@@H](C)CC)C(=O)N[C@@H](CCCN)C(=O)NCC(=O)NCC(=O)N1CCC[C@H]1C(=O)N[C@@H](CO)C(=O)N[C@@H](CO)C(=O)NCC(=O)N[C@@H](C)C(=O)N1CCC[C@H]1C(=O)N1CCC[C@H]1C(=O)N1CCC[C@H]1C(=O)N[C@@H](CO)C(N)=O [Example 409] (H-Y[Aib]EGT[αMePhe(2-F)]TSDY[Aib]I[αMeL]LD[Orn]K([AEEA-AEEA-γGlu-Decanoyl(10-(4-HOOC-PhO))])AQ[Aib]K([AEEA-AEEA-γGlu-Decanoyl(10-(4-HOOC-PhO))])FI[dE][αMeY]LI[Orn]GGPSSGAPPPS-NH2; N-terminus assumed)
EC50 (hGCGR; [1]): > 9950 nM | EC50 (hGCGR; [2]): > 9950 nM | Emax (hGIPR; [3]): 84% | EC50 (hGIPR; [4]): 0.00928 nM | Emax (hGLP-1R; HEK293, read-out: hGLP-1R Emax, % ± SEM, cAMP, 37° C., 0.1% bovine casein and 1.0% human serum albumin, percent of maximal response to GLP-1(7-36)NH2): 97.7% | EC50 (hGLP-1R; [5]): 0.188 nM

CC[C@H](C)[C@H](NC(=O)[C@H](CCCN)NC(=O)[C@H](CC(=O)O)NC(=O)[C@H](CC(C)C)NC(=O)[C@](C)(CC(C)C)NC(=O)[C@@H](NC(=O)[C@](C)(CO)NC(=O)[C@H](Cc1ccncc1)NC(=O)[C@H](CC(=O)O)NC(=O)[C@H](CO)NC(=O)[C@@H](NC(=O)[C@](C)(Cc1ccccc1F)NC(=O)[C@@H](NC(=O)CNC(=O)[C@H](CCC(=O)O)NC(=O)C(C)(C)NC(=O)[C@@H](N)Cc1ccc(O)cc1)[C@@H](C)O)[C@@H](C)O)[C@@H](C)CC)C(=O)N[C@@H](C)C(=O)N[C@@H](CCC(N)=O)C(=O)NC(C)(C)C(=O)N[C@@H](CCCCNC(=O)COCCOCCNC(=O)COCCOCCNC(=O)CC[C@H](NC(=O)CCCCCCCCCCCCC(=O)O)C(=O)O)C(=O)N[C@@H](Cc1ccccc1)C(=O)N[C@H](C(=O)N[C@H](CCC(=O)O)C(=O)N[C@@](C)(Cc1ccc(O)cc1)C(=O)N[C@@H](CC(C)C)C(=O)N[C@H](C(=O)N[C@@H](CCCCNC(=O)COCCOCCNC(=O)COCCOCCNC(=O)CC[C@H](NC(=O)CCCCCCCCCCCCC(=O)O)C(=O)O)C(=O)NCC(=O)NCC(=O)N1CCC[C@H]1C(=O)N[C@@H](CO)C(=O)N[C@@H](CO)C(=O)NCC(=O)N[C@@H](C)C(=O)N1CCC[C@H]1C(=O)N1CCC[C@H]1C(=O)N1CCC[C@H]1C(=O)N[C@@H](CO)C(N)=O)[C@@H](C)CC)[C@@H](C)CC [Example 217]
EC50 (hGCGR; [6]): > 9950 nM | EC50 (hGCGR; [7]): > 9950 nM | EC50 (hGIPR; 0.1% bovine casein and 1.0% human serum albumin, 37° C., read-out: hGIPR EC50, nM (SEM, n)): 7.84 nM | Emax (hGIPR; [8]): 62.7% | Emax (hGIPR; HEK293, percent of maximal response to GIP(1-42)NH2, 37° C., 0.1% bovine casein, arithmetic mean, read-out: hGIPR Emax, % ± SEM): 95.5% | EC50 (hGIPR; [9]): 0.0309 nM | Emax (hGLP-1R; [10]): 118% | Emax (hGLP-1R; HEK293, percent of maximal response to GLP-1(7-36)NH2, 37° C., 0.1% bovine casein, arithmetic mean, read-out: hGLP-1R Emax, % ± SEM): 88% | EC50 (hGLP-1R; [11]): 0.436 nM

CC[C@H](C)[C@H](NC(=O)[C@H](CC(C)C)NC(=O)[C@](C)(Cc1ccc(O)cc1)NC(=O)[C@@H](CCC(=O)O)NC(=O)[C@@H](NC(=O)[C@H](Cc1ccccc1)NC(=O)[C@H](CCC(=O)O)NC(=O)C(C)(C)NC(=O)[C@H](CCC(N)=O)NC(=O)[C@H](C)NC(=O)[C@H](CCCCNC(=O)COCCOCCNC(=O)COCCOCCNC(=O)CCCCCCCCCOc1ccc(C(=O)O)cc1)NC(=O)[C@H](CCCN)NC(=O)[C@H](CC(=O)O)NC(=O)[C@H](CC(C)C)NC(=O)[C@](C)(CC(C)C)NC(=O)[C@@H](NC(=O)C(C)(C)NC(=O)[C@@H](NC(=O)[C@H](CC(=O)O)NC(=O)[C@H](CO)NC(=O)[C@@H](NC(=O)[C@](C)(Cc1ccccc1F)NC(=O)[C@@H](NC(=O)CNC(=O)[C@H](CCC(=O)O)NC(=O)C(C)(C)NC(=O)[C@@H](N)Cc1ccc(O)cc1)[C@@H](C)O)[C@@H](C)O)C(C)C)[C@@H](C)CC)[C@@H](C)CC)C(=O)N[C@@H](CCCCNC(=O)COCCOCCNC(=O)COCCOCCNC(=O)CCCCCCCCCOc1ccc(C(=O)O)cc1)C(=O)NCC(=O)NCC(=O)N1CCC[C@H]1C(=O)N[C@@H](CO)C(=O)N[C@@H](CO)C(=O)NCC(=O)N[C@@H](C)C(=O)N1CCC[C@H]1C(=O)N1CCC[C@H]1C(=O)N1CCC[C@H]1C(=O)N[C@@H](CO)C(N)=O [Example 397]
EC50 (hGCGR; [1]): > 9950 nM | EC50 (hGCGR; [2]): > 9950 nM | Emax (hGIPR; [3]): 84.5% | Emax (hGIPR; HEK293, read-out: hGIPR Emax, % ± SEM, cAMP, 37° C., 0.1% bovine casein, percent of maximal response to GIP(1-42)NH2, arithmetic mean): 94.6% | EC50 (hGIPR; [4]): 0.0293 nM | Emax (hGLP-1R; HEK293, read-out: hGLP-1R Emax, % ± SEM, cAMP, 37° C., 0.1% bovine casein, percent of maximal response to GLP-1(7-36)NH2, arithmetic mean): 95.8% | EC50 (hGLP-1R; [5]): 0.166 nM

CC[C@H](C)[C@H](NC(=O)[C@H](CCCN)NC(=O)[C@H](CC(=O)O)NC(=O)[C@H](CC(C)C)NC(=O)[C@](C)(CC(C)C)NC(=O)[C@@H](NC(=O)C(C)(C)NC(=O)[C@H](Cc1ccc(O)cc1)NC(=O)[C@H](CC(=O)O)NC(=O)[C@H](CO)NC(=O)[C@@H](NC(=O)[C@](C)(Cc1ccccc1F)NC(=O)[C@@H](NC(=O)CNC(=O)[C@H](CCC(=O)O)NC(=O)C(C)(C)NC(=O)[C@@H](N)Cc1ccc(O)cc1)[C@@H](C)O)[C@@H](C)O)[C@@H](C)CC)C(=O)N[C@@H](C)C(=O)N[C@@H](CCC(N)=O)C(=O)NC(C)(C)C(=O)N[C@@H](CCCCNC(=O)COCCOCCNC(=O)COCCOCCNC(=O)CC[C@H](NC(=O)CCCCCCCCCCCCC(=O)O)C(=O)O)C(=O)N[C@@H](Cc1ccccc1)C(=O)N[C@H](C(=O)N[C@H](CCC(=O)O)C(=O)N[C@@](C)(Cc1ccc(O)cc1)C(=O)N[C@@H](CC(C)C)C(=O)N[C@H](C(=O)N[C@@H](CCC(=O)O)C(=O)NCC(=O)NCC(=O)N1CCC[C@H]1C(=O)N[C@@H](CO)C(=O)N[C@@H](CO)C(=O)NCC(=O)N[C@@H](C)C(=O)N1CCC[C@H]1C(=O)N1CCC[C@H]1C(=O)N1CCC[C@H]1C(=O)N[C@@H](CO)C(=O)N[C@@H](CCCCNC(=O)COCCOCCNC(=O)COCCOCCNC(=O)CC[C@H](NC(=O)CCCCCCCCCCCCC(=O)O)C(=O)O)C(N)=O)[C@@H](C)CC)[C@@H](C)CC [Example 235] (H-Y[Aib]EGT[αMePhe(2-F)]TSDY[Aib]I[αMeL]LD[Orn]IAQ[Aib]K([AEEA-AEEA-γGlu-C14 diacid])FI[dE][αMeY]LIEGGPSSGAPPPSK([AEEA-AEEA-γGlu-C14 diacid])-NH2; N-terminus assumed)
EC50 (hGCGR; [6]): > 9950 nM | EC50 (hGCGR; [7]): > 9950 nM | Emax (hGIPR; [8]): 92.2% | EC50 (hGIPR; [9]): 0.0168 nM | Emax (hGLP-1R; [10]): 152% | EC50 (hGLP-1R; [11]): 0.295 nM
